What was measured:
Format in all cases: cell-based, human
[1] = test system: cell line AFCA004 (E morphology); assay: Treatment with PANC-1 conditioned medium in combination with growth factors, real-time PCR; settings: PANC-1 conditioned medium plus growth factor; for somatostatin expression: after 14 days treatment
Protocol: Amniotic fluid-derived cells were obtained from a single donor and cultured for 12 days in conditioned media that was obtained from cultures of PANC-1 cells. The media was supplemented with the growth factors indicated. The levels of expression of HNF-3 beta and somatostatin were determined by real-time PCR. Human pancreas total RNA was included as a calibrator.
Cells from the cell line AFCA004 (E morphology) at passage 6 were seeded at 5×10^5 cells per well of 6-well culture plates and treated with conditioned medium from confluent PANC-1 cells (ATCC, VA) in combination with different growth factors. Basic FGF, EGF and combination of bFGF and EGF enhanced the expression of HNF-3 beta ˜100 fold over untreated cells. Basic FGF, EGF and BMPs also stimulated somatostatin expression after 14 days treatment (FIG. 16, panels a&b).

[2] = test system: cell line AFCA007 Clone A (AF-I); assay: Differentiation of cells into multiple endocrine lineages (collagen type I/matrigel transwell culture with growth factors); settings: 14 days, DMEM + 5% FBS
Protocol: Cells from the cell line AFCA007 Clone A (AF-I) at passage 8 were embedded in collagen type I (Becton Dickinson, CA) with 1% growth-factor reduced matrigel matrix (Becton Dickinson), and seeded into 6-well transwell insert at 5×10^5 cells per well. The bottom well was seeded with human aortic endothelial cells passage 6 (Cambrex. MD). Cells were cultured with DMEM medium supplemented with 5% FBS and growth factors, which includes Cyclopamine, bFGF, EGF, BMP4-7, Activin A, Exendin 4, FGF4, all-trans retinoic acid and γ-secretase inhibitors for 14 days. Cultures were fed every other day. […] Treatment of cells with BMPs at high concentration, 50 ng/ml, also up-regualted the GATA4 expression.

[3] = test system: Hes-1 expression (Notch pathway) in cell line AFCA007 (AF-I); assay: Hes-1 expression by real-time PCR after notch pathway inhibition; settings: range of concentrations, 3 to 5 days
Protocol: (§1) Cells were treated for three days, at the concentrations indicated. Changes in viability, corresponding to cytotoxicity were detected using an MTS assay, where a decrease in cell viability corresponds to a decrease in A490 nm.
(§2) Cells from the cell line AFCA007 (AF-I) at passage 8 were treated with a range of concentrations of the notch pathway inhibitor L-685,458 (Sigma, MO) for 3 to 5 days. The cytotoxcity of L-685,458 was determined by measuring cell viability by a MTS assay (Promega, WI). Real-time PCR analysis was performed to analyze Hes-1 expression after the treatment. […] No effect on cell viability, as determined by the MTS assay, was observed following L-685,458 treatment of up to 10 μM for 5 days (FIG. 17, panel b).

cell line AFCA007 (AF-I) = assay: Cytotoxicity by MTS cell viability assay; settings: up to 10 μM for 5 days
Protocol: as §1, §2

Row | Compound | expression of HNF-3 beta over untreated cells [1] [fold] | somatostatin expression [1] | further results
1 | EGF: epidermal growth factor combined with PANC-1 conditioned medium (NSDSECPLSHDGYCLHDGVCMYIEALDKYACNCVVGYIGERCQYRDLKWWELR; Epidermal growth factor; UniProt P01133 971-1023, looked up) | ~100 | stimulated | –
2 | CC(C)C[C@H](NC(=O)[C@H](Cc1ccccc1)C[C@@H](O)[C@H](Cc1ccccc1)NC(=O)OC(C)(C)C)C(=O)N[C@@H](Cc1ccccc1)C(N)=O [L-685,458] | – | – | expression of HNF-3 beta [2]: up-regulated; Hes-1 expression [3]: dose-dependent inhibitory effect; cell viability (MTS assay) (cell line AFCA007 (AF-I)): No effect
3 | Basic FGF: growth factor combined with PANC-1 conditioned medium | ~100 | stimulated | –
4 | CC1=C(/C=C/C(C)=C/C=C/C(C)=C/C(=O)O)C(C)(C)CCC1 [all-trans retinoic acid, reference compound] | – | – | alpha-fetoprotein (AFP) expression [2]: up-regulation

Source: patent US20070122903A1, “AMNIOTIC FLUID DERIVED CELLS” (priority 2005, published 2007)
